Assay results reported in US9895381B2, “Vitamin D receptor agonists to treat diseases involving CXCL12 activity” (Salk Institute for Biological Studies, priority 2013, dated 2018).

How the values were obtained:
[1] = cited from earlier work
[2] = tested on: pancreatic cancer patient; assay: Patient treated with neoadjuvant paricalcitol plus gemcitabine/abraxane; assay type: in vivo, human
Description: Thus, in some examples, paricalcitol is administered at 5 or 10 μg IV three times weekly for two-three weeks before surgery. […] Paricalcitol can be given for 28 days approximately prior to planned surgery, and can be continued up to the day before surgery, since there is no relevant toxicity of this micronutrient. Last dose can be 24 h before surgery (if surgery is delayed, and additional days of therapy may be given to reach the day before surgery).

PDA patients = conditions: standard of care; cited from earlier work
[3] = 28 days paricalcitol with one cycle of gemcitabine/abraxane

Row | SMILES | phosphorus and calcium levels ([1]; first 30 days of treatment) | mean plasma clearance ([1]; over 600 patients) | adverse clinical effects before surgery [2, 3] | calcium levels [2, 3] | histological analysis of resected tumor ([2]; after surgery) | serum CA 19-9 level after treatment ([2]; reduced from 120 U/mL, normal range 0-37 U/mL) | benefit to PDA patients (PDA patients)
1 | C[C@H](/C=C/[C@H](C)C(C)(C)O)[C@H]1CC[C@H]2/C(=C/C=C3C[C@@H](O)C[C@H](O)C3)CCC[C@]12C [Paricalcitol, 19-nor-1,25-(OH)2-vitamin D2] | stable phosphorus and calcium levels | 1.75 L/h | No adverse clinical effects | no elevation calcium levels | granulomas with few cancer cells | 40 U/mL | 
2 | Cl.Nc1ccn([C@@H]2O[C@H](CO)[C@@H](O)C2(F)F)c(=O)n1 [gemcitabine, 2′-Deoxy-2′,2′-difluorocytidine monohydrochloride] |  |  |  |  |  |  | 1.5 month
